Laboratory results taken from paper PMC4242536, “Cell Surface Protein Disulfide Isomerase Regulates Natriuretic Peptide Generation of Cyclic Guanosine Monophosphate” (PLoS ONE, 2014).
One block for each compound: values may come before it.

How the values were obtained:
PDI full-length protein = biological target: T1, PDI full-length protein (Homo sapiens, UniProt P07237); experiment: Surface Plasmon Resonance binding to immobilized PDI (Biacore T200); conditions: SPR, 25°C, pH 7.4
T1 construct: PDI full-length protein (Sigma, St. Louis, MO) was immobilized onto a CM5 sensorchip; purchased Sigma (St. Louis, MO)
Experimental: SPR measurements were performed at 25°C on a Biacore T200 biosensor (GE Healthcare). PDI full-length protein (Sigma, St. Louis, MO) was immobilized onto a CM5 sensorchip using an amine coupling immobilization kit (GE Healthcare) as instructed by the supplier. After the chip was washed with Biacore running buffer (150 mM NaCl, and 0.005% (w/v) Polysorbate 20, 10 mM HEPES, pH 7.4), peptides ANP, BNP or CNP were injected at 40 ul/min for 30 s and allowed to dissociate for 150 s. Residual bound peptide was desorbed with 350 mM NaCl. Binding kinetics were derived from sensorgrams using Bioevaluation software version 4.1.1 (GE Healthcare).

[1] = system: human mesangial cells (HMCs); experiment: Total cellular cGMP (BIOTRAK enzyme immunoassay) in HMCs stimulated by natriuretic peptides; type: cell-based
Experimental: (§1) Human umbilical vein endothelial cells (HUVECs), human aortic smooth muscle cells (HASMCs), and pig kidney epithelial cells (LLC-PK1) were purchased from American Type Culture Collection (ATCC) (Manassas, VA). HUVECs were cultured in endothelial growth medium (EGM-2) with supplements (Lonza, Hopkinton, MA). HASMCs were cultured in smooth muscle cells growth medium (SmBM) with supplements (Lonza). Primary human glomerular mesangial cells (HMCs) (Cell Systems Inc., Kirkland, WA) were grown in mesangial growth media with supplements (Cell Systems Inc.). LLC-PK1 cells were grown in Dullbecco's Modification of Eagle's Medium (DMEM) containing 10% FBS. All cell cultures were grown at 37°C in humidified 5% CO2 air. Primary cells from passage 3 to 7 were used in this study.
(§2) Total cellular cGMP was measured using the BIOTRAK cGMP enzyme immunoassay system Kit (GE Healthcare) as previously described. Briefly, cells were plated in 96-well plates and incubated overnight to reach 80% confluence. The cells were stimulated with different concentrations of synthetic natriuretic peptides dissolved in basic culture medium containing 0.5 mM IBMX for 30 minutes, then lysed. All samples were completed in triplicate for each experiment. The amount of cGMP was calculated from a standard curve that was generated in parallel. […]

PDI = experiment: Diphtheria toxin sensitivity assay (cell survival) in HMCs; type: cell-based, human; conditions: DT 30 minutes then 72 hours, p<0.05, 3 independent experiments
HMCs, HASMCs, and HUVECs = experiment: Total cellular cGMP in HMCs, HASMCs and HUVECs (summary over cells); type: cell-based, human
Experimental: (§3) Human umbilical vein endothelial cells (HUVECs), human aortic smooth muscle cells (HASMCs), and pig kidney epithelial cells (LLC-PK1) were purchased from American Type Culture Collection (ATCC) (Manassas, VA). HUVECs were cultured in endothelial growth medium (EGM-2) with supplements (Lonza, Hopkinton, MA). HASMCs were cultured in smooth muscle cells growth medium (SmBM) with supplements (Lonza). Primary human glomerular mesangial cells (HMCs) (Cell Systems Inc., Kirkland, WA) were grown in mesangial growth media with supplements (Cell Systems Inc.). LLC-PK1 cells were grown in Dullbecco's Modification of Eagle's Medium (DMEM) containing 10% FBS. All cell cultures were grown at 37°C in humidified 5% CO2 air. Primary cells from passage 3 to 7 were used in this study. Total cellular cGMP was measured using the BIOTRAK cGMP enzyme immunoassay system Kit (GE Healthcare) as previously described. Briefly, cells were plated in 96-well plates and incubated overnight to reach 80% confluence. The cells were stimulated with different concentrations of synthetic natriuretic peptides dissolved in basic culture medium containing 0.5 mM IBMX for 30 minutes, then lysed. All samples were completed in triplicate for each experiment. The amount of cGMP was calculated from a standard curve that was generated in parallel. […]

[2] = system: human umbilical vein endothelial cells (HUVECs); experiment: Total cellular cGMP (BIOTRAK enzyme immunoassay) in HUVECs stimulated by natriuretic peptides; type: cell-based; conditions: 30 minutes with NP, 0.5 mM IBMX, p ≤0.05 vs samples without bacitracin, 3 independent experiments in triplicate
Experimental: as §3

GC-B = experiment: Western blot of GC-B expression in HMCs; type: cell-based, human; conditions: HMCs with and without bacitracin
Experimental: as §1, with “study. Conventional western blotting was used to identify PDI in cellular proteins and was described previously.” for “study.”

[3] = system: pig kidney epithelial cells (LLC-PK1); experiment: Total cellular cGMP (BIOTRAK enzyme immunoassay) in LLC-PK1 cells stimulated by ANP; type: cell-based
Experimental: as §1, §2

[4] = system: human aortic smooth muscle cells (HASMCs); experiment: Total cellular cGMP (BIOTRAK enzyme immunoassay) in HASMCs stimulated by natriuretic peptides; type: cell-based; conditions: 30 minutes with NP, 0.5 mM IBMX, p ≤0.05 vs samples without bacitracin, 3 independent experiments in triplicate
Experimental: as §3

T1 sequence (P07237 18-508, species assumed): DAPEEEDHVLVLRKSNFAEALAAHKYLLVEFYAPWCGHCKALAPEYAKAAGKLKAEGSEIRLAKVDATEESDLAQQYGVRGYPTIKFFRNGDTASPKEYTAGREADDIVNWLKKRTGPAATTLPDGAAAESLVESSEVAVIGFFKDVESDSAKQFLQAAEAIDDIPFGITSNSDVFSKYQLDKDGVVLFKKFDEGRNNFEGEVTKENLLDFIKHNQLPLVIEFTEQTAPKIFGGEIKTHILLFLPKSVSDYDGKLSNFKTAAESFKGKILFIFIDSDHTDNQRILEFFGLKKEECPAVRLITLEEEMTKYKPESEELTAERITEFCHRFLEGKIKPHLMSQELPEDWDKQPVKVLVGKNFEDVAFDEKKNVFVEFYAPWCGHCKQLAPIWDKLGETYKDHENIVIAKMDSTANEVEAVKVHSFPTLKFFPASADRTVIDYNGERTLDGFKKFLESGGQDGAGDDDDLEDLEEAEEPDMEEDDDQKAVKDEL

Compound: CC[C@H](C)[C@@H]1NC(=O)[C@H](CCCNC(=N)N)NC(=O)[C@H](CC(=O)O)NC(=O)[C@H](CCSC)NC(=O)[C@H](CCCCN)NC(=O)[C@H](CCCNC(=N)N)NC(=O)CNC(=O)[C@H](Cc2ccccc2)NC(=O)[C@@H](NC(=O)CNC(=O)[C@H](CO)NC(=O)CNC(=O)[C@H](CCC(N)=O)NC(=O)[C@@H](NC(=O)[C@H](CCSC)NC(=O)[C@H](CCCCN)NC(=O)[C@@H]2CCCN2C(=O)[C@@H](N)CO)C(C)C)CSSC[C@@H](C(=O)N[C@@H](CCCCN)C(=O)N[C@H](C(=O)N[C@@H](CC(C)C)C(=O)N[C@@H](CCCNC(=N)N)C(=O)N[C@@H](CCCNC(=N)N)C(=O)N[C@@H](Cc2c[nH]cn2)C(=O)O)C(C)C)NC(=O)CNC(=O)[C@H](CC(C)C)NC(=O)CNC(=O)[C@H](CO)NC(=O)[C@H](CO)NC(=O)[C@H](CO)NC(=O)[C@H](CO)NC1=O [BNP, B-type natriuretic peptide]
binding to immobilized PDI (in words) (PDI full-length protein; 0–1600 nM ANP and BNP, 200 nM comparison of NPs): highest binding affinity with PDI and displayed dose-dependent increases in binding

affinity for PDI (in words) (PDI full-length protein; compared with ANP and BNP, Fig. 5D): much lower affinity
Compound: C-type natriuretic peptide [CNP]

Compound: bacitracin
inhibitory effect on cGMP levels in the presence of protease inhibitors ([1]; HMCs stimulated by ANP and CNP, with or without protease inhibitor cocktail, 3 independent experiments): did not lose its inhibitory effects on cGMP levels
attenuation of ANP, BNP, and CNP-mediated increases in cGMP ([1]; HMCs, 30 minutes with NP, 0.5 mM IBMX, p ≤0.05 vs samples without bacitracin, 3 independent experiments in triplicate): significantly attenuated
cell survival on diphtheria toxin (inhibition of PDI-dependent DT toxicity) (PDI): inhibited PDI function
cell survival on diphtheria toxin (inhibition of PDI-dependent DT toxicity) (PDI; listed as Bacitracin): increased cell survival significantly
dose dependence of the inhibitory effect on NP-mediated cGMP (HMCs, HASMCs, and HUVECs; data not shown, HMCs, HASMCs and HUVECs): dose dependent
effect on NP cGMP generation compared to RL90 or siRNA knockdown (HMCs, HASMCs, and HUVECs; in words): greater effect
attenuation of ANP, BNP, and CNP-mediated increases in cGMP [2]: significantly attenuated
effect on GC-B expression (GC-B): no difference in GC-B expression
inhibition of ANP-mediated increases in cGMP ([3]; LLC-PK1 cells (no detectable PDI), p>0.05): did not inhibit
attenuation of ANP, BNP, and CNP-mediated increases in cGMP [4]: significantly attenuated

Compound: protein disulfide isomerase [PDI]
increase of ANP stimulated cGMP production ([3]; LLC-PK1 cells, purified PDI added, compared with cells without PDI, second of two values (condition not given, Fig. 3C)): 39%
